Common to all, as to assay: growth of human tumour cells (NCI), 48 h
Assay [1] concerns CCRF-CEM leukemia.
The test system of assay [2] is OVCAR-5 ovarian.
Assay [3] has as its system SR leukemia.
Assay [4] relates to HOP-62 NSCLC.
Assay [5] relates to OVCAR-4 ovarian.
The test system of assay [6] is HOP-92 NSCLC.
Assay [7] has as its system SNB-75 CNS.
Assay [8] relates to ACHN renal.
The test system of assay [9] is HL-60(TB) leukemia.
The subject of assay [10] is 786-0 renal.

SMILES strings stand for the structures.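 Test compounds were applied to cells in 96-well plates for 48 hours at 5 doses. GI50 marks 50% less growth. TGI: total growth inhibition.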

With `O=C(CC12CC3CC(CC(C3)C1)C2)NCCOCCOCCNC(=O)c1cc2c(o1)C(=O)c1ccccc1C2=O`, the GI50 in [1] is 2.27 µM; in assay [2], 1.69 µM; in assay [3], 1.08 µM; in assay [4], 1.52 µM; in assay [5], 0.839 µM; in assay [6] it was 2.26 µM. In addition, the GI50 is 1.56 µM in [7], 1.35 µM in assay [8], 1.22 µM in [9] and 2.05 µM in assay [10]. Also, the TGI in assay [1] was found to be 13.1 µM; in assay [2], 3.09 µM; in assay [3], 6.55 µM; in assay [4] it was 2.86 µM; in [5], 2.08 µM; in [6] it was 6.1 µM. For the same molecule, the TGI in assay [7] is 2.9 µM; in assay [8], 2.72 µM; in assay [9] it was 4.61 µM; in [10], 4.7 µM.
In the case of `CCOc1ccc(NC(=O)Nc2cc(C(C)C)ccc2C)cc1`, the GI50 in assay [1] is more than 25.5 µM; in assay [2], 11.9 µM; in assay [3], 0.952 µM; in assay [4] it was 8.78 µM; in [5] it was 3.33 µM; in [6], 1.83 µM. The GI50 in assay [7] was 2.82 µM; in [8], 4.37 µM; in assay [9] it was more than 57.9 µM; in assay [10], 2.64 µM. In addition, the TGI in assay [1] was more than 100 µM; in assay [2], more than 76 µM; in [3] it was more than 22.9 µM; in assay [4], 22.8 µM; in assay [5], 11.5 µM; in [6] it was 7.54 µM. Further, the TGI was 10.2 µM in assay [7], 14.7 µM in assay [8], more than 100 µM in assay [9] and 6.72 µM in assay [10].
On to `COc1ccc2c(c1)C(=O)c1c-2c(NCCCN(C)C)nc2ccccc12`, for which the GI50 in assay [1] was 1.48 µM; in assay [2], 10.2 µM; in [3], 1.09 µM; in assay [4], 5.93 µM; in assay [5], 0.898 µM; in assay [6], 1.15 µM. The GI50 in [7] was 0.997 µM; in assay [8], 1.11 µM; in assay [9], 2.63 µM; in [10] it was 4.24 µM. Moreover, the TGI in [1] was found to be 3.47 µM; in assay [2] it was 21.9 µM; in assay [3], 3.58 µM; in [4] it was 19.9 µM; in [5], 16.4 µM; in assay [6], 8.6 µM. The TGI worked out at 11.8 µM in assay [7], 2.31 µM in assay [8], 12.3 µM in assay [9] and 18.7 µM in assay [10].
Take `O=C1Nc2ccc(F)c3c(OCCO)cc(-c4ccc[nH]4)c1c23`: the GI50 was 0.99 µM in assay [1]; 2.35 µM in assay [2]; 0.963 µM in assay [3]; 3.07 µM in [4]; 1.44 µM in assay [5]; 0.908 µM in [6]. For the same molecule, the GI50 in assay [7] is 1.52 µM; in assay [8], 0.608 µM; in assay [9], 1.14 µM; in [10], 2.44 µM. In addition, the TGI in [1] amounted to 11.1 µM; in assay [2] it was 10 µM; in [3], 5.51 µM; in assay [4] it was 13.8 µM; in [5], 12.1 µM; in assay [6] it was 5.4 µM. In addition, the TGI is 7.02 µM in assay [7], 7.2 µM in [8], 7.44 µM in assay [9] and 9.26 µM in assay [10].
As to `c1ccc2c(c1)O[As](O[As]1Oc3ccccc3O1)O2`, the GI50 in [1] is 0.434 µM; in assay [2], 5.01 µM; in assay [3], 1.61 µM; in assay [4], 3.62 µM; in [5], 2.49 µM; in [6] it was 0.86 µM. The GI50 in assay [7] is 1.87 µM; in assay [8] it was 6.47 µM; in assay [9], 1.49 µM; in assay [10], 3.66 µM. The TGI in assay [1] turned out to be 10.8 µM; in assay [2], 22.2 µM; in assay [3] it was 7.39 µM; in assay [4], 14.2 µM; in assay [5], 19.7 µM; in assay [6], 5.31 µM. Besides, the TGI in [7] was 12 µM; in assay [8], 21.4 µM; in assay [9], 3.92 µM; in [10], 15.4 µM.
As to `O=C(O)CSc1n[nH]c(/C=C/c2ccccc2)n1`, the TGI in assay [1], in assay [2], in [3], in assay [4], in assay [5] and in [6] was more than 100 µM in each case. Moreover, the TGI in assay [7], in assay [8], in assay [9] and in assay [10] was more than 100 µM in each case.
In the case of `COc1ccc(-c2nc(-c3nc4ccc(F)cc4[nH]3)cc3c2[nH]c2ccccc23)cc1`, the GI50 is 2.29 µM in [1]; 4.46 µM in assay [2]; 3.34 µM in [3]; 3.22 µM in assay [4]; 5.1 µM in assay [5]; 2.87 µM in assay [8]. Further, the GI50 is 2.83 µM in assay [9] and 3.33 µM in assay [10]. Besides, the TGI in [1] was 25.6 µM; in assay [2], more than 100 µM; in assay [3], more than 100 µM; in [4], 74.7 µM; in assay [5], more than 100 µM; in assay [8] it was more than 100 µM. Besides, the TGI in assay [9] is 7.23 µM; in [10], more than 100 µM.
For `CN(C(=O)C1CCCCC1)c1ccccc1I(=O)=O`, the GI50 was 17.6 µM in assay [1]; 37.2 µM in assay [2]; 13.7 µM in assay [3]; 33.2 µM in [5]; 26.1 µM in assay [6]; 34.6 µM in assay [7]. Besides, the results for the GI50 in [8], in assay [9] and in [10] were 39.4 µM, 13.5 µM and 43.3 µM, respectively. Moreover, the TGI in assay [1] was 38 µM; in [2] it was more than 100 µM; in [3], 36.1 µM; in [5], more than 100 µM; in assay [6] it was 67 µM; in assay [7] it was more than 100 µM. The TGI in assay [8] is more than 100 µM; in [9] it was 36.8 µM; in assay [10], more than 100 µM.

For the origin of these results see PubChem BioAssay (NCI).
